Measured values published in US5849777A, “Cell differentiation induction with mevalonate and mevalonolactone derivatives” (University of New Mexico, priority 1995, dated 1998).
Where two headings read alike, the source gives them in different places.

Key:
[1] = system: human colon carcinoma cell line (LS-174); assay: effect on tumor cell generation time, human colon carcinoma; format: cell-based
Protocol: The procedure of Example VA, above, was repeated except a human colon carcinoma cell line (LS-174) was used instead of the canine glioma cell line.
(§1) Mean of triplicate determinations. LS-174 cells (human colon carcinoma) were grown under conditions to promote exponential growth characteristics; 2×10^5 cells in a T-25 flask. The cells were harvested every 72 hours after the controls had reached approximately 85% confluency. The drug was added at the initiation of culture in DMSO, the control cultures had just DMSO. The drug concentration was adjusted with DMSO so that the final concentration of DMSO was always 0.5%.

[2] = target: T1, rat liver HMG-COA reductase (Rattus norvegicus, UniProt P51639); assay: inhibition of rat liver HMG-CoA reductase activity; format: biochemical
T1 construct: rat liver HMG-COA reductase activity; from tissue; host or cells: rat liver
T1 sequence (P51639 1-887): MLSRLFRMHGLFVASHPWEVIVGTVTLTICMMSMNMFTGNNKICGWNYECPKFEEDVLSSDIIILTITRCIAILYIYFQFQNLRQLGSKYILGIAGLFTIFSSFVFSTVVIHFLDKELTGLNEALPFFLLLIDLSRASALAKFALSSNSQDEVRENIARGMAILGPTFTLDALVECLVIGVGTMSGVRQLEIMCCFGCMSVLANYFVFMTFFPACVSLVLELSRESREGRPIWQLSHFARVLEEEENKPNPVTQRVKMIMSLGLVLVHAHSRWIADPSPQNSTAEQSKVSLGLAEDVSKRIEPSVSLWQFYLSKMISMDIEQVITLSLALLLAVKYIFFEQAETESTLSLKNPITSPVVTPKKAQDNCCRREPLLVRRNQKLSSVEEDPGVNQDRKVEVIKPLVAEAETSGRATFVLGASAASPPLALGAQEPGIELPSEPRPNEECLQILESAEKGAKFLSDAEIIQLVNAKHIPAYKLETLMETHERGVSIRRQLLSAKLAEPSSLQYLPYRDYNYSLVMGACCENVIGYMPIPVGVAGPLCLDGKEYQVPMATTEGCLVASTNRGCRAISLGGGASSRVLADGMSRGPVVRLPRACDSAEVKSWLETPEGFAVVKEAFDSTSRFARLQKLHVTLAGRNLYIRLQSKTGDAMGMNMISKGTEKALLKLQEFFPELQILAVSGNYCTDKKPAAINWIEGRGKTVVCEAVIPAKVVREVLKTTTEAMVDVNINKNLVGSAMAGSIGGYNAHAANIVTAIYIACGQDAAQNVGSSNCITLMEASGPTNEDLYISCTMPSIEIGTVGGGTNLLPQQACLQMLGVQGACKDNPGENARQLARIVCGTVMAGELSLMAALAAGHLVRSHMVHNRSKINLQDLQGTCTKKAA
Description: While a number of the compounds of the Formula I are known HMG-CoA reductase inhibitors, there is no apparent correlation between HMG-CoA reductase inhibitory activity and promotion of differentiation activity according to the invention. […] Accordingly, useful guidelines for selecting compounds having optimal differentiation-promoting activity according to the invention broadly comprise selecting compounds of the Formula I having the specified stereochemical configuration and an in vitro immunological activity as set forth in the in vitro assay of Example II, of at least about 3-fold.

Canine glioma cells [3] = assay: cytotoxicity as simple survival (T50%); format: cell-based; settings: Canis lupus familiaris, Glioma cell, read-out: T 50%
Protocol: (§2) Cytotoxicity was determined as a function of simple survival (T50 %), adherence (ADH50 %) and thymidine incorporation (I50%) of the cells.
(§3) Estimates of the 50% inhibitory concentrations of the various drugs tested on simple survival (T50%) and adherence (ADH50%) for canine glioma cells.

[4] = system: Human peripheral blood leukocytes; assay: IgG production by human peripheral blood leukocytes (HPBL) in vitro; format: cell-based; settings: for Inhibitory Concentration (concentration inhibiting nonspecific IgG production below normal production): HPBL, additional 90 h culture
Protocol: Human peripheral blood leukocytes were cultured in a standard tissue culture medium. Aliquots of these cultured cells (1,000,000 cells/ml medium) were cultured for 6 hours, and the specified amount of Formula II compound was added; the cells were then cultured for an additional 90 hours. Sheep red blood cells (SRBC) conditioned with class-specific (IgG) goat anti-human antiserum (1:400) for 2 hours; then guinea pig complement (2%) for 2 hours were conjugated to Protein A as described in detail in Radioimaging and Radioimmunotherapy, Eds. S. W. Burchiel and B. A. Rhodes, Elsevier Science Publishing; New York, 1983, pp. 125-127, incorporated herein by reference.
1. Concentration inhibiting nonspecific IgG production below normal production.

Canine glioma cells [5] = assay: effect on tumor cell generation time, canine glioma; format: cell-based; settings: 10 nM
Protocol: The cells were harvested every 72 hours after the controls had reached 85% confluency. Generation time (Tg) was determined as the number of hours required for the cell population to double.
as §1, with “Canine glioma” for “LS-174”, “cells” for “cells (human colon carcinoma)”, “2×10^5cells” for “2×10^5 cells”

Canine glioma cells [6] = assay: inhibition of adherence (ADH50%); format: cell-based; settings: Canis lupus familiaris, Glioma cell
Protocol: as §2, §3

Canine glioma cells [7] = assay: inhibition of thymidine incorporation (I50%); format: cell-based; settings: Canis lupus familiaris, Glioma cell
Protocol: as §2
Estimates of the I50% of the various drugs tested on thymidine incorporation of canine glioma cells in culture.

canine glioma cells [8] = assay: in vivo tumor inhibition: nude rat model; set-up: species or system Nude Rats (canine glioma cells)
Protocol: Fifty four Nude Rats (Harlan) were injected in the right flank with 5×10^6 canine glioma cells. Animals at the time of injection were between 52 and 63 days old and weighed approximately 200 g. The rats were divided into 7 groups, each group having a total number of 7 rats except for the control group, which totalled 12 animals. Compound IIc' was administered to the experimental animals at one of the following dose for each experimental group: 100 μg/kg, 10 μg/kg, 1 μg/kg, 0.1 μg/kg, 0.01 μg/kg and 0.001 μg/kg (phosphate buffer saline, M, W, F, I.P.). The control animals were injected with PBS (phosphate buffered saline) only. The volume of each injection was 100 μl. The injections of drug were simultaneously begun with injection of tumor cells. The animals were injected with the appropriate dosage of drug (1 ng/kg to […]) by I.P. injection and tumor length, width and depth were measured using caliphers each Monday, Wednesday and Friday (M, W, F) morning for approximately 9 weeks. Each point on the graphs represents the total of all rats for each group. […] The data were normalized for the greater number of control animals by multiplying the total tumor volume for the control animals by 7/12.

CG (canine glioma) cells = assay: tumor-specific antibody production in vivo (anti-CG IgG titer); set-up: species or system dog
Description: Titer of CG-specific antibody was compared to control [no administration of compound IIa' and no implantation of CG (canine glioma) cells]. […] This increase in titer continued with time until tumor regression was noted by independent measurement (NMR evaluation, below).
The results are particularly striking as the experimental tumor (brain glioma) is generally considered to enjoy a privileged position beyond the blood/brain barrier, substantially beyond the reach of the humoral immune system. Experimental protocols are described in detail below (FIGS. 7-9, Example VII).

CG tumor = assay: chromium-release cell-mediated lympholysis (CML) vs CG tumor; format: in vivo, dog
Description: Cellular immune response reflected the results reported in III, 1 above. […] This also is in the absence of CG antigen exposure. […] Thus both cellular and humoral immunity appear to be modulatable in the absence of antigen by the compounds of the instant invention.

[9] = read-out: IC50 (concentration for 50% inhibition of rat liver HMG-COA reductase activity), Table I

SMILES: CC(C)c1nc(-c2ccccc2)n(-c2ccc(F)cc2)c1/C=C/[C@H](O)C[C@@H](O)CC(=O)O (relative stereo) [Compound IIe']
- % CHANGE (Tg) ([1]; 10 nM, 72 × 2 h): 400%
- Tg ([1]; 10 nM, 72 × 2 h): 106.2 h
- % CHANGE (Tg) ([1]; 10 nM, 72 × 3 h): 416%
- Tg ([1]; 10 nM, 72 × 3 h (three passages), control 26.5 h): 110.3 h
- % CHANGE (Tg) ([1]; 10 nM, 72 × 4 h): 414%
- Tg ([1]; 10 nM, 72 × 4 h): 109.6 h
- % CHANGE (Tg) ([1]; 10 nM, 72 h): 320%
- Tg ([1]; 10 nM, 72 h): 84.9 h
- prolongation of generation time ([1]; 10 nM, three passages): 4.16 fold
- generation time after drug withdrawn ([1]; drug withdrawn, two passages): returned to control levels
- IC50 ([2]; Example IV, read-out: IC50 (HMG-CoA reductase)): 3 nM
- IC50 [2, 9]: 3 nM
- IC50 (Canine glioma cells [3]; 24 h exposure): 750 nM
- IC50 (Canine glioma cells [3]; 72 h exposure): 800 nM
- IC50 (Canine glioma cells [3]; 96 h exposure): 900 nM
- Stimulation of IgG Production ([4]; 1&100 nM): 1990%
- activation at 0.0001 µM ([4]; Homo sapiens, Leukocyte, 90 h, 100 pM, read-out: Stimulation of IgG Production): < 350%
- contact inhibition as the cells approached confluency (Canine glioma cells [5]): showed evidence of contact inhibition
- % CHANGE (Tg) (Canine glioma cells [5]; 72 × 2 h): 129%
- Tg (Canine glioma cells [5]; 72 × 2 h): 24.0 h
- % CHANGE (Tg) (Canine glioma cells [5]; 72 × 3 h): 180%
- Tg (Canine glioma cells [5]; 72 × 3 h (three passages), control 18.6 h): 33.4 h
- % CHANGE (Tg) (Canine glioma cells [5]; 72 × 4 h): 155%
- Tg (Canine glioma cells [5]; 72 × 4 h): 28.9 h
- % CHANGE (Tg) (Canine glioma cells [5]; 72 h): 136%
- Tg (Canine glioma cells [5]; 72 h): 25.3 h
- slowing of the growth rate (Canine glioma cells [5]; three passages): 1.8 fold
- IC50 (Canine glioma cells [6]; 24 h exposure): 75 nM
- IC50 (Canine glioma cells [6]; 72 h exposure): 70 nM
- IC50 (Canine glioma cells [6]; 96 h exposure): 75 nM
- IC50 (Canine glioma cells [7]; 24 h exposure, read-out: I50%): 50 nM
- IC50 (Canine glioma cells [7]; 48 h exposure, read-out: I50%): 75 nM
- IC50 (Canine glioma cells [7]; 72 h exposure, read-out: I50%): 80 nM
- IC50 (Canine glioma cells [7]; 96 h exposure, read-out: I50%): 50 nM
- IC50 (Canine glioma cells [7]; Table V, all exposure times, read-out: I50% (thymidine incorporation into DNA)): 50 to 80 nM

SMILES: CC(C)c1nc(-c2ccccc2)n(-c2ccc(F)cc2)c1/C=C/[C@H](O)C[C@@H](O)CC(=O)O [Compound IIc']
- IC50 [2, 9]: 22 nM
- optimal dose in vitro (immune stimulation) ([4]; HPBL assay): 100 pM
- Inhibitory Concentration (concentration inhibiting nonspecific IgG production below normal production) [4]: none found
- immune stimulant (in words) ([4]; see Examples above): potent immune stimulant
- optimal dose in vivo, equivalent concentration with uniform distribution (canine glioma cells [8]; 100 ng/kg): 250 pM
- most effective dosage for inhibition of canine glioma cells (canine glioma cells [8]; I.P., M, W, F, approx. 9 weeks (FIG. 3)): 100 ng/kg
- cytostatic activity (canine glioma cells [8]; higher doses, 10 and 100 μg/kg I.P.): Little or no cytostatic activity
- cytostatic activity (canine glioma cells [8]; lowest dose, 1 ng/kg I.P.): Little or no cytostatic activity
- IC-50% TITER (ANTI-CG) (CG (canine glioma) cells; treatment 2+ months, tumor regressed): BASELINE VALUES
- slope "M" (LINEAR REGRESSION OF TOXICITY), Y = "M"X + B (CG tumor; December 14, 1987): 0.05
- slope "M" (LINEAR REGRESSION OF TOXICITY), Y = "M"X + B (CG tumor; February 9, 1988): 0.35
- slope "M" (LINEAR REGRESSION OF TOXICITY), Y = "M"X + B (CG tumor; February 17, 1988): 0.75
- slope "M" (LINEAR REGRESSION OF TOXICITY), Y = "M"X + B (CG tumor; March 31, 1988): 0.05

SMILES: CC(C)c1nc(-c2ccccc2)n(-c2ccc(F)cc2)c1/C=C/[C@H](O)C[C@H](O)CC(=O)O [IIa]
- IC50 ([2]; Table I): 3150 nM
- Inhibitory Concentration (concentration inhibiting nonspecific IgG production below normal production) [4]: none found
- CG-specific antibody (CG (canine glioma) cells; at tumor regression, within a few days): reverted to baseline control levels
- CG-specific antibody (IgG) production (CG (canine glioma) cells; following implantation of the CG tumor cells): increased significantly
- titers of antibody over the control antibody titer (CG (canine glioma) cells; in the absence of antigen): titers of antibody increased over the control antibody titer significantly
- CML reactivity (CG tumor; after 5 weeks, tumor totally regressed): returned to baseline
- CG-specific CML (CG tumor; after 14 days of administration, I.P., M, W, F): only baseline levels of CG-specific CML were present
- CML reactivity (CG tumor; after a few days of exposure to the CG tumor implant): large increase in the CML reactivity
- CML (CG tumor; after an additional 2 months, absence of CG antigen exposure): significant increase in CML
